In publication PMC6273715, “Synthesis and Evaluation of New Benzodioxole- Based Thiosemicarbazone Derivatives as Potential Antitumor Agents” (Molecules, 2016):

Key:
[1] = tested on: NIH/3T3 mouse embryonic fibroblast cells; assay: MTT cytotoxicity assay, NIH/3T3; assay type: cell-based; conditions: NIH3T3, 24 h, read-out: IC50 NIH/3T3 Cell Line
Method: C6 Rat glioma and NIH/3T3 mouse embryonic fibroblast cells were incubated in Dulbecco’s Modified Eagle’s Medium (DMEM) (Sigma, Deisenhofen, Germany) supplemented with 10% fetal calf serum (Gibco, Paisley, UK). A549 Human lung adenocarcinoma cells were incubated in 90% RPMI supplemented with 10% fetal bovine serum (Gibco). All media were supplemented with 100 IU/mL penicillin-streptomycin (Gibco) and cells were incubated at 37 °C in a humidified atmosphere of 95% air and 5% CO2. Exponentially growing cells were plated at 2 × 10^4 cells/mL into 96-well microtiter tissue culture plates (Nunc, Roskilde, Denmark) and incubated for 24 h before the addition of the drugs (the optimum cell number for cytotoxicity assays was determined in preliminary experiments). The stock solutions of the compounds were prepared in dimethyl sulfoxide (DMSO; Sigma Aldrich, Poole, UK) and further dilutions were made with fresh culture medium (the concentration of DMSO in the final culture medium was <0.1% which had no effect on the cell viability).
(§1) The level of cellular 3-(4,5-dimethylthiazol-2-yl)-2,5-diphenyltetrazolium bromide (MTT) (Sigma) reduction was quantified as previously described in the literature with small modifications. […] At the end of this period, MTT was added to a final concentration of 0.5 mg/mL and the cells were incubated for 4 h at 37 °C. After the medium was removed, the formazan crystals formed by MTT metabolism were solubilized by addition of 200 µL DMSO to each well and absorbance was read at 540 nm with a microtiter plate spectrophotometer (Bio-Tek Plate Reader, Winooski, VT, USA). Every concentration was repeated in three wells.

AChE = AChE (Electrophorus electricus, UniProt O42275); assay: biochemical; assay type: biochemical; conditions: for IC50: tested at 5–80 μg/mL
Sequence of AChE (O42275 24-633): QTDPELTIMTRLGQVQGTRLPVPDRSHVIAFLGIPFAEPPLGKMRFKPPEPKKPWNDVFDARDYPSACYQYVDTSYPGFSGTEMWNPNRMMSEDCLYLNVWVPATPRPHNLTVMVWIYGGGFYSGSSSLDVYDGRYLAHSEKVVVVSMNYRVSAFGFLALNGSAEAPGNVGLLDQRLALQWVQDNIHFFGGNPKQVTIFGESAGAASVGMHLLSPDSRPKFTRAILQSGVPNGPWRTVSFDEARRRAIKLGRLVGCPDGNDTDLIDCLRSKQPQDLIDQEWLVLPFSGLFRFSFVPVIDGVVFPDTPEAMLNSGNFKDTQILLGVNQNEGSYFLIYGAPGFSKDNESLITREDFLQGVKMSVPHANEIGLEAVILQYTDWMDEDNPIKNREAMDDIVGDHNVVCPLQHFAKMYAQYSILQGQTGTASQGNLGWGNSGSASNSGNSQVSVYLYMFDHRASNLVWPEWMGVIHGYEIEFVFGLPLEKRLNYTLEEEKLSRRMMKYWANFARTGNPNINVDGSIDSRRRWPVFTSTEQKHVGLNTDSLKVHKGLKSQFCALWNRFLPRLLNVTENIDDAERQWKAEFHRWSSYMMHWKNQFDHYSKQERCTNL

C6 cells [2] = assay: DNA synthesis inhibition (BrdU ELISA), C6; assay type: cell-based, rat; conditions: C6, compound at its IC50, 24 h
Method: (§2) The immunostaining procedure was carried out with specific anti-BrdU antibodies in the S-phase of the cell cycle. DNA synthesis inhibitory effects of all compounds were evaluated for 24 h. A549 and C6 cell lines were incubated with three different concentrations of the compounds that were determined according to their IC50 values. Cisplatin was used as a positive control.
(§3) Analysis of DNA synthesis was measured by a Cell Proliferation ELISA, BrdU (colorimetric) kit (Roche, Mannheim, Germany). This immunostaining procedure is based on measuring the incorporation of bromodeoxyuridine (BrdU) into nuclear DNA in place of thymidine during the S-phase of the cell cycle using specific anti-BrdU antibodies. […] Firstly cells were seeded into 96 well flat-bottomed microtiter plates at a density of 2 × 10^3. […] Microtiter plates were incubated at 37 °C in a 5% CO2/95% air humidified atmosphere for 24 h. Cells were labeled with 10 µL BrdU solution for 2 h and then fixed. Anti-BrdU-POD (100 µL) was added and incubated for 90 min. Finally, wells were washed with BPS and cells were incubated with substrate. Absorbance of the samples was measured with an ELX808-IU Bio-Tek apparatus at 492 nm. All experiments were repeated two times. For each compound dose, dublicate wells were used.

BuChE = BuChE (Homo sapiens, UniProt P06276); assay: BuChE inhibition, modified Ellman's method; assay type: biochemical; conditions: for IC50: tested at 5–80 μg/mL
Sequence of BuChE (P06276 29-602): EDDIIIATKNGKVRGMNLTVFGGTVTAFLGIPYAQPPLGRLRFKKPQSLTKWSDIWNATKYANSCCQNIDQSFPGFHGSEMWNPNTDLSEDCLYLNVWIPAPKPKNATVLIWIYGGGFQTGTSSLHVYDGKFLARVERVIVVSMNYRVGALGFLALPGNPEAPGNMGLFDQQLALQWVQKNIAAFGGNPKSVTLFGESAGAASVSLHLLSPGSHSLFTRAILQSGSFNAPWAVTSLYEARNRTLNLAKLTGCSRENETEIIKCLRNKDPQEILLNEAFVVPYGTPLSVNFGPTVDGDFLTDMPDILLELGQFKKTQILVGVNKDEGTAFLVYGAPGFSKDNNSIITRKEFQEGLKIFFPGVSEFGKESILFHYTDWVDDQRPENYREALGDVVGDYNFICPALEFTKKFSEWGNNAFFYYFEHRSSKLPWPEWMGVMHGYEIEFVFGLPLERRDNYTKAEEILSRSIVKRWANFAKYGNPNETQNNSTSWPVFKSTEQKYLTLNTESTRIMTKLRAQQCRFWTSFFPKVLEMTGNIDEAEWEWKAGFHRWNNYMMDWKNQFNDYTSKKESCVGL

C6 rat glioma cells = assay: MTT cytotoxicity assay, C6; assay type: cell-based; conditions: for IC50: Rattus norvegicus, C6, MTT, 24 h, read-out: IC50 C6 Cell Line; for cytotoxicity (in words): C6, at the concentrations used
Method: (§4) C6 Rat glioma and NIH/3T3 mouse embryonic fibroblast cells were incubated in Dulbecco’s Modified Eagle’s Medium (DMEM) (Sigma, Deisenhofen, Germany) supplemented with 10% fetal calf serum (Gibco, Paisley, UK). A549 Human lung adenocarcinoma cells were incubated in 90% RPMI supplemented with 10% fetal bovine serum (Gibco). […] Exponentially growing cells were plated at 2 × 10^4 cells/mL into 96-well microtiter tissue culture plates (Nunc, Roskilde, Denmark) and incubated for 24 h before the addition of the drugs (the optimum cell number for cytotoxicity assays was determined in preliminary experiments).
as §1

[3] = tested on: A549 human lung adenocarcinoma cells; assay: MTT cytotoxicity assay, A549; assay type: cell-based; conditions: for IC50: Homo sapiens, A549, MTT, 24 h, read-out: IC50 A549 Cell Line; for cytotoxicity (in words): A549, at the concentrations used
Method: as §4, §1

A549 cells [4] = assay: DNA synthesis inhibition (BrdU ELISA), A549; assay type: cell-based, human; conditions: A549, compound at its IC50, 24 h
Method: as §2, §3

C6 cells [5] = assay: Mitochondrial membrane potential (JC-1) flow cytometry, C6; assay type: cell-based, rat; conditions: IC50 dose, 24 h
Method: (§5) During apoptosis, several key events occur in mitochondria including the release of cytochrome c, changes in electron transport, and loss of mitochondrial transmembrane potential (ΔΨm). For this reason, ΔΨm is an important parameter of mitochondrial function in apoptosis.
(§6) The cells were seeded in six-well plates at a density of 10^5 cells/mL, and the IC50 dose of compounds 2, 5 and 10 was added to cells. The cells were incubated in 5% CO2 air-conditioned atmosphere at 37 °C. […] 5,5′,6,6′-Tetrachloro-1,1′,3,3′-tetraethylbenzimidazolylcarbocyanine iodide (JC-1) dye solution (1× assay buffer + JC-1 stock solution) was added to the cells. The stock solution was prepared by dissolving DMSO. Then the samples were incubated at a temperature of 37 °C for 10–15 min. After incubation, the cells were washed twice with an assay buffer and analyzed by BD FACS Aria Cell Sorter Software version 6.1.1 flow cytometry (BD Biosciences). The cells showing mitochondrial membrane potential disruption were determined as a percentage of all cells.

A549 cells [6] = assay: Mitochondrial membrane potential (JC-1) flow cytometry, A549; assay type: cell-based, human; conditions: IC50 dose, 24 h
Method: as §5, §6

C6 cells [7] = assay: Annexin V-PI flow cytometry of apoptosis, C6; assay type: cell-based; conditions: IC50 dose, 24 h
Method: (§7) Annexin V staining protocol was applied according to the manufacturer’s instructions (BD Pharmingen). The cells were then briefly washed with cold phosphate buffer saline (PBS) and suspended in a binding buffer at a concentration of 1 × 10^6 cells/mL. Then, 100 µL of this solution containing 1 × 10^5 cells was transferred to a 5 mL test tube. After 5 µL of Annexin-V and PI was added, the cells were incubated for 15 min at room temperature in the dark. Then 400 µL of 1x Binding Buffer was added to each tube and the cells were processed for data acquisition, and analyzed on a Becton–Dickinson FACS Aria using […] Version 6.1.1. Software (BD Biosciences, San Jose, CA, USA).

A549 cells [8] = assay: Annexin V-PI flow cytometry of apoptosis, A549; assay type: cell-based; conditions: IC50 dose, 24 h
Method: as §7

SMILES: S=C(NN=Cc1ccc(Cl)c(Cl)c1)Nc1ccc2c(c1)OCO2 [Compound 9, 4-(1,3-Benzodioxole-5-yl)-1-(3,4-dichlorobenzylidene)thiosemicarbazide]
- IC50 [1]: > 136 µM
- IC50 (AChE): 205 ± 5 µM
- DNA synthesis inhibition percent (C6 cells [2]): 37.71%
- IC50 (BuChE): > 213 µM
- IC50 (C6 rat glioma cells): 25.3 ± 1.53 µM
- IC50 [3]: 51.5 ± 4.95 µM
- DNA synthesis inhibition percent (A549 cells [4]): 27.3%

SMILES: S=C(N/N=C/c1cc2c(cc1Br)OCO2)Nc1ccc2c(c1)OCO2 [Compound 10]
- IC50 [1]: 38.3 ± 2.08 µM
- IC50 (AChE): 108 ± 3.53 µM
- P2 (%) mitochondrial membrane polarized cells, C6 Cells (C6 cells [5]): 35.1%
- P3 (%) mitochondrial membrane depolarized cells, C6 Cells (C6 cells [5]): 63.7%
- P2 (%) mitochondrial membrane polarized cells, A549 Cells (A549 cells [6]): 21.9%
- P3 (%) mitochondrial membrane depolarized cells, A549 Cells (A549 cells [6]): 57.9%
- DNA synthesis inhibition percent (C6 cells [2]): 53.96%
- inhibition on BuChE (in words) (BuChE): weak inhibition
- IC50 (BuChE): > 189 µM
- IC50 (C6 rat glioma cells): 12.3 ± 4.93 µM
- Early and Late Apoptotic Cells % C6 Cells (C6 cells [7]): 15.8%
- Viability % C6 Cells (C6 cells [7]): 69.6%
- IC50 [3]: 29.7 ± 5.51 µM
- Early and Late Apoptotic Cells % A549 Cells (A549 cells [8]): 6.2%
- Viability % A549 Cells (A549 cells [8]): 81.2%
- DNA synthesis inhibition percent (A549 cells [4]): 56.38%

SMILES: S=C(NN=Cc1ccc(-c2ccccc2)cc1)Nc1ccc2c(c1)OCO2 [Compound 5, 4-(1,3-Benzodioxole-5-yl)-1-[(biphenyl-4-yl)methylene]thiosemicarbazide]
- IC50 [1]: 21.3 ± 5.77 µM
- inhibitory activity against AChE (in words) (AChE): did not show any inhibitory activity
- IC50 (AChE): > 213 µM
- P2 (%) mitochondrial membrane polarized cells, C6 Cells (C6 cells [5]): 49.8%
- P3 (%) mitochondrial membrane depolarized cells, C6 Cells (C6 cells [5]): 45.0%
- P2 (%) mitochondrial membrane polarized cells, A549 Cells (A549 cells [6]): 52.7%
- P3 (%) mitochondrial membrane depolarized cells, A549 Cells (A549 cells [6]): 24.6%
- DNA synthesis inhibition percent (C6 cells [2]): 62.98%
- IC50 (BuChE): > 213 µM
- IC50 (C6 rat glioma cells): 4.33 ± 1.04 µM
- Early and Late Apoptotic Cells % C6 Cells (C6 cells [7]): 25.0%
- Viability % C6 Cells (C6 cells [7]): 60.2%
- IC50 [3]: 10.7 ± 1.53 µM
- Early and Late Apoptotic Cells % A549 Cells (A549 cells [8]): 12.11%
- Viability % A549 Cells (A549 cells [8]): 81.8%
- DNA synthesis inhibition percent (A549 cells [4]): 57.79%

SMILES: CN(C)c1ccc(C=NNC(=S)Nc2ccc3c(c2)OCO3)cc1 [Compound 4, 4-(1,3-Benzodioxole-5-yl)-1-(4-dimethylaminobenzylidene)thiosemicarbazide]
- IC50 [1]: > 146 µM
- IC50 (AChE): > 234 µM
- IC50 (BuChE): > 213 µM
- cytotoxicity (in words) (C6 rat glioma cells): no significant cytotoxicity
- IC50 (C6 rat glioma cells): > 146 µM
- cytotoxicity (in words) [3]: no significant cytotoxicity
- IC50 [3]: > 146 µM

SMILES: S=C(NN=Cc1ccccc1)Nc1ccc2c(c1)OCO2 [Compound 1, 4-(1,3-Benzodioxole-5-yl)-1-(benzylidene)thiosemicarbazide]
- IC50 [1]: > 167 µM
- IC50 (AChE): > 267 µM
- IC50 (BuChE): > 213 µM
- cytotoxicity (in words) (C6 rat glioma cells): no significant cytotoxicity
- IC50 (C6 rat glioma cells): > 167 µM
- cytotoxicity (in words) [3]: no significant cytotoxicity
- IC50 [3]: > 167 µM

SMILES: Fc1ccc(C=NNC(=S)Nc2ccc3c(c2)OCO3)cc1 [Compound 6, 4-(1,3-Benzodioxole-5-yl)-1-(4-fluorobenzylidene)thiosemicarbazide]
- IC50 [1]: 2.87 ± 0.05 µM
- IC50 (AChE): > 252 µM
- IC50 (BuChE): > 213 µM
- cytotoxicity (in words) (C6 rat glioma cells): no significant cytotoxicity
- IC50 (C6 rat glioma cells): > 158 µM
- cytotoxicity (in words) [3]: no significant cytotoxicity
- IC50 [3]: > 158 µM

SMILES: S=C(NN=Cc1ccc(Br)cc1)Nc1ccc2c(c1)OCO2 [Compound 8, 4-(1,3-Benzodioxole-5-yl)-1-(4-bromobenzylidene)thiosemicarbazide]
- IC50 [1]: 9.16 ± 2.47 µM
- IC50 (AChE): > 212 µM
- inhibition on BuChE (in words) (BuChE): weak inhibition
- IC50 (BuChE): > 212 µM
- cytotoxicity (in words) (C6 rat glioma cells): no significant cytotoxicity
- IC50 (C6 rat glioma cells): > 132 µM
- cytotoxicity (in words) [3]: no significant cytotoxicity
- IC50 [3]: > 132 µM

SMILES: O=[N+]([O-])c1ccc(C=NNC(=S)Nc2ccc3c(c2)OCO3)cc1 [Compound 2, 4-(1,3-Benzodioxole-5-yl)-1-(4-nitrobenzylidene)thiosemicarbazide]
- IC50 [1]: > 145 µM
- IC50 (AChE): > 232 µM
- P2 (%) mitochondrial membrane polarized cells, C6 Cells (C6 cells [5]): 44.8%
- P3 (%) mitochondrial membrane depolarized cells, C6 Cells (C6 cells [5]): 21.1%
- P2 (%) mitochondrial membrane polarized cells, A549 Cells (A549 cells [6]): 4.5%
- P3 (%) mitochondrial membrane depolarized cells, A549 Cells (A549 cells [6]): 9.8%
- DNA synthesis inhibition percent (C6 cells [2]): 63.34%
- IC50 (BuChE): > 213 µM
- IC50 (C6 rat glioma cells): 23.3 ± 2.08 µM
- Early and Late Apoptotic Cells % C6 Cells (C6 cells [7]): 5.4%
- Viability % C6 Cells (C6 cells [7]): 94.5%
- IC50 [3]: 24 ± 3.46 µM
- Early and Late Apoptotic Cells % A549 Cells (A549 cells [8]): 23.7%
- Viability % A549 Cells (A549 cells [8]): 75.2%
- DNA synthesis inhibition percent (A549 cells [4]): 59.85%

SMILES: N#Cc1ccc(C=NNC(=S)Nc2ccc3c(c2)OCO3)cc1 [Compound 3, 4-(1,3-Benzodioxole-5-yl)-1-(4-cyanobenzylidene)thiosemicarbazide]
- IC50 [1]: > 154 µM
- inhibitory activity against AChE (in words) (AChE): did not show any inhibitory activity
- IC50 (AChE): > 213 µM
- DNA synthesis inhibition percent (C6 cells [2]): 54.99%
- IC50 (BuChE): > 213 µM
- IC50 (C6 rat glioma cells): 49.3 ± 1.15 µM
- IC50 [3]: 28 ± 1 µM
- DNA synthesis inhibition percent (A549 cells [4]): 53.24%

SMILES: S=C(NN=Cc1ccc(Cl)cc1)Nc1ccc2c(c1)OCO2 [Compound 7, 4-(1,3-Benzodioxole-5-yl)-1-(4-chlorobenzylidene)thiosemicarbazide]
- IC50 [1]: 9.5 ± 2.5 µM
- IC50 (AChE): > 240 µM
- inhibition on BuChE (in words) (BuChE): weak inhibition
- IC50 (BuChE): > 240 µM
- cytotoxicity (in words) (C6 rat glioma cells): no significant cytotoxicity
- IC50 (C6 rat glioma cells): > 150 µM
- cytotoxicity (in words) [3]: no significant cytotoxicity
- IC50 [3]: > 150 µM
